According to paper PMC11617653, “Macrocyclic Inhibitors Targeting the Prime Site of the Fibrinolytic Serine Protease Plasmin” (Chemmedchem, 2024):
Several values for one entry are separate records, joined by “and”; a condition that tells them apart may be missing. Equal values may be shown once. Positions of bridges follow the written chain, without caps; N, C: chain ends. Non-standard residues stand in square brackets, D forms with d. Residues, ends and D or L forms follow the SMILES beside them. Phe(4-NH2) = Nc1ccc(C[C@H](N)C(=O)O)cc1; Trx = NC[C@H]1CC[C@H](C(=O)O)CC1; βAla = NCCC(=O)O

Legend:
Assay type in all cases: biochemical
human plasmin = target: T1, human plasmin (Homo sapiens, UniProt P00747); assay: Inhibition of human plasmin, fluorogenic substrate Mes-DArg-Phe-Arg-AMC
T1 construct: purchased Calbiochem
Protocol: All inhibitors prepared in this study act as reversible competitive plasmin inhibitors, their K i values were calculated by fitting the steady‐state velocities as function of the inhibitor concentrations using equation 1. 4‐aminophenylalanine (Phe(4‐NH2)) was incorporated as P1’ residue in the first inhibitor series, which enabled a macrocyclization via amide bond formation from its side chain amino group using various linker segments and P2’ residues (Table 1). […] The improved potency of SFTI‐1 analogues with basic P2’ residues[9] stimulated the incorporation of Arg in that position leading to inhibitor 4 with a slightly stronger inhibitory potency. A significant improvement could be achieved when using 3‐ or 4‐aminophenylacetic acid as P2’ group in combination with elongated linker residues (5‐6). […] However, inhibitor 9 is a twofold stronger plasmin inhibitor compared to its analogue 8.
For these inhibitors the steady‐state velocities were calculated by fitting the progress curves to equation 2 providing an additional apparent first‐order rate constant k obs for each curve. The steady‐state rates were used for K i determination with equation 1 and the k obs values for the calculation of the association rate constants k on according to equation 3. The dissociation rate constant k off was calculated from the known K i and k on values using equation 4. The enzyme kinetic evaluation of slow‐binding inhibitors of plasmin has already been described in detail in our two previous publications.[11, 12]
All measurements were conducted as triplicates in black 96‐well FluoroNunc MaxiSorp plates (Nunc, Langenselbold, Germany) and suitable fluorogenic substrates at room temperature. […] Each well contained a total volume of 180 μL consisting of 100 μL of inhibitor dissolved in buffer, 40 μL of the substrate Mes‐DArg‐Phe‐Arg‐AMC[11] (100 μM in assay, KM=16.1 μM) dissolved in water and 40 μL of plasmin solution (0.27 nM in assay). The following equations were used for the enzyme kinetic analysis as described in the results section and in our previous publications.[11, 12] (1) [drawing 71] (2) [drawing 72] (3) [drawing 73] (4) [drawing 74]

plasma kallikrein (PK) = plasma kallikrein (PK) (Homo sapiens, UniProt P03952); assay: Selectivity: inhibition of plasma kallikrein
Protocol: (§1) For these three proteases a selectivity index (SI=K i(protease)/K i(plasmin)) was calculated, which is provided in brackets after the inhibition constants (Table 3).
(§2) The measurements with the related trypsin‐like serine proteases trypsin, plasma kallikrein, factor XIa, thrombin, activated protein Ca and factor Xa used in selectivity studies were performed as described previously.[11, 12]

factor XIa (fXIa) = factor XIa (fXIa) (Homo sapiens, UniProt P03951); assay: Selectivity: inhibition of factor XIa
Protocol: as §1, §2

thrombin = thrombin (Homo sapiens, UniProt P00734); assay: Selectivity: inhibition of thrombin; conditions: deduced from pre-assays with only three inhibitor concentrations; read-out: Thrombin K i
Protocol: as §1, §2

[1] = target: activated protein C (aPC) (Homo sapiens, UniProt P04070); assay: Selectivity: inhibition of activated protein C; conditions: deduced from pre-assays with only three inhibitor concentrations; read-out: aPC K i
Protocol: as §1, §2

factor Xa (fXa) = factor Xa (fXa) (Homo sapiens, UniProt P00742); assay: Selectivity: inhibition of factor Xa; conditions: deduced from pre-assays with only three inhibitor concentrations; read-out: fXa K i
Protocol: as §1, §2

[2] = K i (nM), inhibition of plasmin, series two, substituted Bpa in P1', and acyclic analogues, steady-state velocities, equation 1
[3] = K i (μM), inhibition of plasmin, series one, 4-aminophenylalanine in P1', steady-state velocities, equation 1

T1 sequence (P00747 581-810): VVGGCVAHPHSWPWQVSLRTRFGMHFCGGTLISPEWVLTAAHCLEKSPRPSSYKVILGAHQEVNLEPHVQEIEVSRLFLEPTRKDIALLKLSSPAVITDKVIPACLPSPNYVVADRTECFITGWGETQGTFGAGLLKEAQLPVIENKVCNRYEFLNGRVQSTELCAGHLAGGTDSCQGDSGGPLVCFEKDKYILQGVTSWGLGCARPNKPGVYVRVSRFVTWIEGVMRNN
T1 sequence (P00747 97-580): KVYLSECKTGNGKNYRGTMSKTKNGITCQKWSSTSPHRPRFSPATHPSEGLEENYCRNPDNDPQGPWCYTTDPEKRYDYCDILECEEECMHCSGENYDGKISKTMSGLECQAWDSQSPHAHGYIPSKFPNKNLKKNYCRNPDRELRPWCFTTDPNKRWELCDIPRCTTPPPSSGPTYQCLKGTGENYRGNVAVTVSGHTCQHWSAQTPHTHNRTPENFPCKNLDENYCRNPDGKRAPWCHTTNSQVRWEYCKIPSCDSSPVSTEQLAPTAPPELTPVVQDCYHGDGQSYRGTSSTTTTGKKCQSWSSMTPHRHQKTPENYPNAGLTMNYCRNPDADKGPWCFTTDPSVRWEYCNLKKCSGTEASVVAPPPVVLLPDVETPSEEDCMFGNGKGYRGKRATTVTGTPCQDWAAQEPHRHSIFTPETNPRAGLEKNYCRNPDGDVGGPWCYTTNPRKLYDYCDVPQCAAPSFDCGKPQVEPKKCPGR
factor XIa (fXIa), sequence (P03951 19-387): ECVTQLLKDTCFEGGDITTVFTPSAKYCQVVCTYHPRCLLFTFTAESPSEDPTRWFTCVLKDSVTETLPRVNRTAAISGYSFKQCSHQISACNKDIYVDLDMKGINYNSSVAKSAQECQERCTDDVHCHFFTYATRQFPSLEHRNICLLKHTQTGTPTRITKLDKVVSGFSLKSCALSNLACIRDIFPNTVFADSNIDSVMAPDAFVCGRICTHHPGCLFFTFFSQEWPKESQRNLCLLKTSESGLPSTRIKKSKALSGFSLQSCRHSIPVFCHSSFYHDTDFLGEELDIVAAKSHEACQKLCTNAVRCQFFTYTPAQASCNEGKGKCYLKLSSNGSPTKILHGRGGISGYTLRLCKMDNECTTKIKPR
factor XIa (fXIa), sequence (P03951 388-625): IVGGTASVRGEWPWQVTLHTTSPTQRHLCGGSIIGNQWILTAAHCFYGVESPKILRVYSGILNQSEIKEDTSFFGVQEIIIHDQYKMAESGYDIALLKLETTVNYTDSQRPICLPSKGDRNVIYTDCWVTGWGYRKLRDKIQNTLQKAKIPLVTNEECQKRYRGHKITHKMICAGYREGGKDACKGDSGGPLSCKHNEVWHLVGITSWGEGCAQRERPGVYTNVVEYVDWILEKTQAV
plasma kallikrein (PK), sequence (P03952 391-638): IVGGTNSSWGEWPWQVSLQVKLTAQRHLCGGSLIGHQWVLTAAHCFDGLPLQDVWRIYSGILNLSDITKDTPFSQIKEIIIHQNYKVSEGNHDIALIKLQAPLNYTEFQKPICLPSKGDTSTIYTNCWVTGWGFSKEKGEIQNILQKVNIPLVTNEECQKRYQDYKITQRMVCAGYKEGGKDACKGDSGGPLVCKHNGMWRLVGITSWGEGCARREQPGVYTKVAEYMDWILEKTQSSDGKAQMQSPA
plasma kallikrein (PK), sequence (P03952 20-390): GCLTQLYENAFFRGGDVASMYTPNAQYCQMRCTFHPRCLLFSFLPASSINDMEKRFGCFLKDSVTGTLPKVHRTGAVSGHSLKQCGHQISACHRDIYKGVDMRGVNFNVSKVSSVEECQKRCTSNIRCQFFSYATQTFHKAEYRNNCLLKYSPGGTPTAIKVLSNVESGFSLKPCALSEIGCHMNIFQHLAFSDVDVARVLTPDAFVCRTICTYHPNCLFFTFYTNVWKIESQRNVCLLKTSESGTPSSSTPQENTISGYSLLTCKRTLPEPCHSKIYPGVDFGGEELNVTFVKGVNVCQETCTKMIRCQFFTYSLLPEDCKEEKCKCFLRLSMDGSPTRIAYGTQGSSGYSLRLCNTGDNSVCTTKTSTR
factor Xa (fXa), sequence (P00742 41-179): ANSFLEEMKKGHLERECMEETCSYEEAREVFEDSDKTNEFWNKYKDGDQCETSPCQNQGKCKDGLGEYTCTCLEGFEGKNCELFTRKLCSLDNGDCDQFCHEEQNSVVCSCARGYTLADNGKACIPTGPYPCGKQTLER
factor Xa (fXa), sequence (P00742 235-488): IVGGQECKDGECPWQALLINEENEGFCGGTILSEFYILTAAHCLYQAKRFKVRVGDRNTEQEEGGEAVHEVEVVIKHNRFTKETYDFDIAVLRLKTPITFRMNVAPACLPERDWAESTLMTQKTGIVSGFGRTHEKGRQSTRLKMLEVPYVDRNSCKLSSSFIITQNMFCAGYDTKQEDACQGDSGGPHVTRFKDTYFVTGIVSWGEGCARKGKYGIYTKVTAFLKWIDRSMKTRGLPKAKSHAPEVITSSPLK
activated protein C (aPC), sequence (P04070 43-197): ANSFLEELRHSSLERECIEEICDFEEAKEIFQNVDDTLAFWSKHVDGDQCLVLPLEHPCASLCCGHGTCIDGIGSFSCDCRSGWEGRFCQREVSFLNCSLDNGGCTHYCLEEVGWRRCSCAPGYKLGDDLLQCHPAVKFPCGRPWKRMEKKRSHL
activated protein C (aPC), sequence (P04070 212-461): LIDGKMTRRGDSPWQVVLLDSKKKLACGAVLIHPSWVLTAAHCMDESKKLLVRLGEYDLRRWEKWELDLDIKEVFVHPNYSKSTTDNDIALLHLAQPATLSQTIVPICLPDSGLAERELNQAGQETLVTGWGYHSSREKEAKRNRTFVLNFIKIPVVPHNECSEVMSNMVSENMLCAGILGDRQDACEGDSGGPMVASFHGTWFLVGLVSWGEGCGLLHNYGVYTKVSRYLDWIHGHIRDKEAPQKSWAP

Compound | Ki (human plasmin; [2]) | Ki (human plasmin; [3]) | further results
Cc1ccc2cc1NC(=O)CNC(=O)CCCNC(=O)Cc1ccc(cc1)NC(=O)[C@@H](NC(=O)[C@H]1CC[C@H](CN)CC1)Cc1ccc-2cc1 [inhibitor 28] | 0.83 nM and 0.832 nM | – | fold stronger plasmin inhibition than acyclic analogues 46 and 47 (human plasmin): approximately 75 fold; Ki (human plasmin; Plasmin K i, Table 3 selectivity): 0.832 nM; PK selectivity index K i(protease)/Ki(plasmin) (plasma kallikrein (PK); in brackets): 38; Ki (plasma kallikrein (PK); read-out: PK K i): 31 ± 14 nM; fXIa selectivity index K i(protease)/Ki(plasmin) (factor XIa (fXIa); in brackets): 49; Ki (factor XIa (fXIa); read-out: fXIa K i): 41 ± 3.2 nM; Ki (thrombin): > 60000 nM; Ki [1]: > 35000 nM; Ki (factor Xa (fXa)): > 8000 nM
NC[C@H]1CC[C@H](C(=O)N[C@H]2Cc3ccc(cc3)NC(=O)[C@H](Cc3ccccc3)NC(=O)CCNC(=O)Cc3ccc(cc3)NC2=O)CC1 [inhibitor 12, (1r,4S)‐4‐(aminomethyl)‐N‐((4S,9S)‐9‐benzyl‐3,8,11,15‐tetraoxo‐2,7,10,14‐tetraaza‐1,6(1,4)‐dibenzenacyclohexadecaphane‐4‐yl)cyclohexane‐1‐carboxamide] | – | 710 nM and 714 nM | –
NC[C@H]1CC[C@H](C(=O)N[C@H]2Cc3ccc(cc3)NC(=O)CCCCCNC(=O)Cc3cccc(c3)NC2=O)CC1 [inhibitor 5] | – | 5810 ± 1090 nM | –
Cc1ccc2cc1NC(=O)CNC(=O)CCNC(=O)Cc1cccc(c1)NC(=O)[C@@H](NC(=O)[C@H]1CC[C@H](CN)CC1)Cc1ccc-2cc1 [inhibitor 41] | 20.6 ± 0.5 nM | – | –
Cc1ccc2cc1NC(=O)CNC(=O)CCCNC(=O)Cc1cccc(c1)CNC(=O)[C@@H](NC(=O)[C@H]1CC[C@H](CN)CC1)Cc1ccc-2cc1 [inhibitor 42] | 284 ± 24 nM | – | –
NC[C@H]1CC[C@H](C(=O)N[C@H]2Cc3ccc(cc3)NC(=O)CCNC(=O)CNC2=O)CC1 [inhibitor 3] (H-[Trx][Phe(4-NH2)]G[βAla]; lactam 2-C) | – | 150000 ± 31000 nM | –
NC[C@H]1CC[C@H](C(=O)N[C@H]2Cc3ccc(cc3)NC(=O)CNC(=O)CCNC(=O)Cc3ccc(cc3)NC2=O)CC1 [inhibitor 9] | – | 2820 ± 200 nM | –
Cc1ccc2cc1NC(=O)CN1CCN(CC1)C(=O)Cc1ccc(cc1)NC(=O)[C@@H](NC(=O)[C@H]1CC[C@H](CN)CC1)Cc1ccc-2cc1 [inhibitor 38] | 35.7 ± 1.1 nM | – | –
Cc1ccc2cc1NC(=O)CNC(=O)CCCCNC(=O)c1ccc3cc(ccc3c1)NC(=O)[C@@H](NC(=O)[C@H]1CC[C@H](CN)CC1)Cc1ccc-2cc1 [inhibitor 43] | 5.14 ± 0.27 nM | – | –
NC[C@H]1CC[C@H](C(=O)N[C@H]2Cc3ccc(cc3)NC(=O)CCCCNC(=O)Cc3ccc(cc3)NC2=O)CC1 [inhibitor 7] | – | 2450 ± 20 nM | –
Cc1ccc2cc1NC(=O)CCN1CCN(CC1)C(=O)Cc1ccc(cc1)NC(=O)[C@@H](NC(=O)[C@H]1CC[C@H](CN)CC1)Cc1ccc-2cc1 [inhibitor 37] | 13 ± 0.2 nM | – | –
N=C(N)NCCC[C@@H]1NC(=O)[C@@H](NC(=O)[C@H]2CC[C@H](CN)CC2)Cc2ccc(cc2)NC(=O)CCNC1=O [inhibitor 4] (H-[Trx][Phe(4-NH2)]R[βAla]; lactam 2-C) | – | 110000 ± 56000 nM | –

Further lines, with some results ahead:

Ki (human plasmin; [2]) | Ki (human plasmin; [3]) | Compound | further results
29.8 ± 1.6 nM | – | Cc1ccc2cc1NC(=O)[C@@H](N)CCCCNC(=O)Cc1ccc(cc1)NC(=O)[C@@H](NC(=O)[C@H]1CC[C@H](CN)CC1)Cc1ccc-2cc1 [inhibitor 35] | –
36.5 ± 0.7 nM | – | Cc1ccc2cc1NC(=O)[C@H](N)CCCCNC(=O)Cc1ccc(cc1)NC(=O)[C@@H](NC(=O)[C@H]1CC[C@H](CN)CC1)Cc1ccc-2cc1 [inhibitor 34] | –
86.1 ± 6.6 nM | – | Cc1ccc(-c2ccc(C[C@H](NC(=O)[C@H]3CC[C@H](CN)CC3)C(=O)Nc3ccc(CC(=O)NCCCC(=O)NCC(=O)O)cc3)cc2)cc1N [inhibitor 46] | –
33.1 ± 3.2 nM | – | Cc1ccc2cc1NC(=O)CCNC(=O)CNC(=O)Cc1ccc(cc1)NC(=O)[C@@H](NC(=O)[C@H]1CC[C@H](CN)CC1)Cc1ccc-2cc1 [inhibitor 26] | –
42 nM and 42.1 nM | – | Cc1ccc2cc1NC(=O)CCCCCNC(=O)Cc1ccc(cc1)NC(=O)[C@@H](NC(=O)[C@H]1CC[C@H](CN)CC1)Cc1ccc-2cc1 [inhibitor 22] | –
